Experimental findings from patent US5679321A, “Sialic acid/fucose based medicaments” (Glycomed Incorporated, priority 1995, dated 1997) are described below.

Assay [1] deals with T1, L-selectin IgG chimera (Homo sapiens, UniProt P14151).
T1 sequence (P14151 39-332 limits assumed): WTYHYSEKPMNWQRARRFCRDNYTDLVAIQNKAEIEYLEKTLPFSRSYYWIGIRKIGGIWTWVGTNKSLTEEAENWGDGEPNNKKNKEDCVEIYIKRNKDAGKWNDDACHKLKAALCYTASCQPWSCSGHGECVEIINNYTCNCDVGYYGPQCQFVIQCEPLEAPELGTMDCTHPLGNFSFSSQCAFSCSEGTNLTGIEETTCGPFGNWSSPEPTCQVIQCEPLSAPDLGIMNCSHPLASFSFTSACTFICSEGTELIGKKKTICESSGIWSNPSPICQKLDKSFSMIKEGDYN
As to the kind of experiment: ELISA: blocking of L-selectin IgG chimera binding to 2,3sLex glycolipid. An excerpt: (§1) An ELISA assay was employed that uses recombinant fusion proteins composed of extracellular portions of the human selectins joined to human immunoglobulin heavy chain CH3, CH2, and hinge regions. See, for example, Walz et al., Science (1990) 250:1132; Aruffo et al., Cell (1991) 67:35; Aruffo et al., Proc. Natl. Acad. Sci. USA (1992) 89:2292. The assay is well known in the art, and generally consists of the following three steps:
(§2) I. 2,3sLex glycolipid (25 picomole/well) was transferred into microtiter wells as solutions and then evaporated off. Excess, which remained unattached, was washed off with water. The wells were then blocked with 5% BSA at room temperature for an hour and then washed with PBS containing 1 mM calcium.
II. […]
(§3) The positive control is the signal produced by the soluble receptor when it is allowed to react with 2,3sLex glycolipid in the microtiter wells in the absence of any inhibitor. […] The signal produced by the receptor that had been previously treated with an inhibitor (recorded as O.D.), was divided by the signal produced by the positive control and multiplied by 100 to calculate the % receptor bound to the well, or as expressed in the figures, the per cent of control binding. […]
Background: ELISA stands for enzyme-linked immunosorbent assay.

Assay [2] relates to neutrophil migration to the peritoneal cavity. As to the kind of experiment: murine thioglycollate induced peritonitis model. It counts as in vivo, female Swiss Webster mice. As to conditions: FIG. 7; for inhibition of neutrophil migration into the peritoneum: compound in PBS by tail vein, thioglycollate intraperitoneally, cells counted after three hours. The source says: The efficaciousness of GM 1221, and GM 1398 was shown using a murine thioglycollate induced peritonitis model. The assay materials and methods are known in the art, or are generally described by Lewinsohn, D. et al., J. Immun., 138:4313-4321 (1987), or Watson, S. et.al., Nature 349:164-166 (1991).
This assay measures the abili:ty of the compounds to inhibit neutrophil migation to the peritoneal cavity, the migration being initiated by the presence of thioglycollate in the peritoneal cavity. Thioglycollate is a known and effective inflammatory agent that causes neutrophil migration into the mouse peritoneum when it is administered intraperitoneally. Lewinsohn, D. et al., J. Immun. (1987) 138:4313-4321.
Briefly, female Swiss Webster mice weighing about 25 grams were injected in the tail vein with 200 ul of phosphate buffered saline (PBS) with or without the appropriate compound. The pH of the solutions was adjusted to neutrality by the addition of either NaOH or HCL and sterilized by filtration through a 0.2 u filter.
Immediately following injection with the appropriate compound or PBS, the mice were injected intraperitoneally with 1 ml of thioglycollate medium prepared as described by the manufacturer, BBL. Three hours following injection of the thioglycollate solution the mice were sacrificed by CO2 asphyxiation, and the number of cells in the peritoneum removed by lavage with 5 ml of heparinized (5U/ml) 0.9%. sodium chloride solution containing 0.1% bovine serum albumin. Cell number was determined using a Coulter Counter. The cells were prepared for counting by diluting the lavage fluid with 1:50 of a commercial physiological isotonic solution, Isoton II, and the cells lysed by adding S/P Lysing and Hemoglobin Reagent (1:100 final dilution). Cell nuclei were counted in a sized window with lower and upper limits set at 3.9 and 5.7 um, respectively.

In assay [3] the test system is E-selectin IgG chimera. The assay can be described thus: ELISA: blocking of E-selectin IgG chimera binding to 2,3sLex glycolipid. Also on record: species or system human. As to conditions: FIG. 4; several concentrations.
Excerpt: as §1, §2
II. […]
as §3

Turning to `CC(OCCCCCCOC1O[C@@H](C)[C@@H](O)[C@@H](O)[C@@H]1O)C(=O)O` (stereo partly drawn) [GM 1221], the “inhibitory activity on L-selectin binding at all four concentrations tested” value in assay [1] (FIG. 6, all four concentrations of the compound tested) was “significant inhibitory activity”. The “inhibition of neutrophil migration into the peritoneum” value in assay [2] is reported as “inhibit neutrophil migration into the peritoneum”.

`CC(=O)NC1C(O)CC(OCCCCCCOC2OC(C)C(O)C(O)C2O)(C(=O)O)OC1C(O)C(O)CO` [GM 1398, 1-O-α-Neu5Ac-(6-O-α-L-Fucopyranosyl)-Hexane]: the “inhibition of L-selectin binding to 2,3sLex glycolipid (per cent of control binding)” value in assay [1] (FIG. 5 and FIG. 6, several concentrations) was “inhibit L-selectin binding in a concentration dependent manner”. For the same molecule, in assay [2], the “inhibition of neutrophil migration into the peritoneum” value is “inhibit neutrophil migration into the peritoneum”. Moreover, the “more neutrophil migration inhibited than GM 1221” value in assay [2] (relative to GM 1221) is given as “about 30%”. Besides, the “inhibition of E-selectin binding to 2,3sLex glycolipid (per cent of control binding)” value in assay [3] is listed as “inhibit E-selectin binding”.
